The experiment has as its target T1, S1P4 (Homo sapiens, UniProt O95977).
T1 construct: expressed in transfected cells
T1 sequence (O95977 1-384): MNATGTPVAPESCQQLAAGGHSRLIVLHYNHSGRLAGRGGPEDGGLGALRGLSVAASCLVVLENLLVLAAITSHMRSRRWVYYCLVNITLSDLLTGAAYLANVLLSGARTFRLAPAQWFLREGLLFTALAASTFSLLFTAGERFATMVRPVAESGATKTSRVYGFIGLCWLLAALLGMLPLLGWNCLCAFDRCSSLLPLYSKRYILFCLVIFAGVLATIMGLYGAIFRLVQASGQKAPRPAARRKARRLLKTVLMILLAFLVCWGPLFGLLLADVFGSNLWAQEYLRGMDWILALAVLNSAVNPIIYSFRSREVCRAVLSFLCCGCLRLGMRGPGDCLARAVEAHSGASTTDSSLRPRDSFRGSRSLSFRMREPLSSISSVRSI
In words: GTPγS binding assay, S1P4. The format is biochemical. As to conditions: CHO cells expressing S1P4. On the procedure:
An expression vector for the human S1P4 gene (HSEDG4; GenBank Accession Number AJ000479) fused to the c-myc peptide tag at the C-terminus is obtained as described in Van Brocklyn et al. 2000, Blood 95(8), 2624. The encoding DNA for the S1P4-myc fusion protein is cloned in the mammalian expression vector pRc/CMV (Invitrogen), which confers G418 resistance for the selection of stable mammalian cells. The DNA sequence of the S1P4 insert is determined on both strands. […] The S1P4-myc cDNA is inserted into the pRc/CMV vector using HindIII/XbaI.
To develop stable cell lines expressing the c-myc tagged S1P4 receptor 5 μg of plasmid pRc/CMV myc-S1P4 is cut using restriction endonuclease PvuI, which cleaves the plasmid once. The linearized plasmid is then precipitated using a final concentration of 0.3M sodium acetate, pH5.0 and 66% ethanol. After centrifugation and washing, the DNA pellet is dissolved in 30 μl water. […] Individual clones that grew after the sort and selection procedure are expanded and one clone is finally selected based on the level of S1P4 mRNA expression determined by TaqMan quantitative PCR analysis.
Membrane proteins are prepared from wild type CHO-K1 and the CHO cell clones expressing human S1P4. […] The protein concentration is determined using the Bio Rad Protein Assay and human IgG as standard. […]
A general note: GTPγS is a poorly hydrolysed GTP analogue; its binding reports G protein activation.

Molecules are shown by their SMILES.

As a reminder, the EC50 is the concentration giving half of the maximal effect. Lower therefore signals a more potent agent. Molecule `NC(CNC(=O)c1cc2c(-c3ccccc3Cc3ccccc3)cccc2[nH]1)C(=O)O` (stereo not shown) [Example 2] displayed a concentration giving a half-maximal response (EC50) of 250 nM.

Source of the values: US7754896B2, “Indol-alanine derivatives as selective S1P4-agonists” (Novartis AG, priority 2004, dated 2010).
